Reference: EP0428423A2, “Aryloxy alkyl benzenes, processes for their preparation and pharmaceutical compositions containing them” (LIPHA S.A., priority 1989, dated 1991)
Read-outs that look alike come from different tables or passages of the source. Values belong to the compound of their own block, whether it stands above or below them.

Columns and labels:
[1] = system: plasmas riches en plaquettes provenant de sang de rat; experiment: Platelet anti-aggregation in vitro, ADP-induced (Born aggregometer); assay type: cell-based
Procedure: Les études ont été réalisées sur des plasmas riches en plaquettes provenant de sang de rat, l'agrégation étant induite par addition d'acide Adénosine diphosphorique. Les courbes néphélométriques d'agrégation sont obtenues en utilisant un agrégomètre de type BORN, le plasma étant placé en incubation à 37° avec agitation continue de 1100 t/mn (cf. BORN G.V.R et CROSS J. - J. Physiol. 168 (1962) 178.

COTRANSPORT Na-K = target: T1, COTRANSPORT Na-K (Homo sapiens, UniProt P55011); experiment: Na-K cotransport of human erythrocytes; assay type: cell-based, ERYTHROCYTES HUMAINS; details: human erythrocytes; for IC50: read-out: EFFET SUR LE COTRANSPORT Na-K IC 50
T1 construct: systèmes de transport du sodium et du potassium des érythrocytes humains; endogenous in cells; host or cells: human erythrocytes
T1 sequence (P55011 1-1212): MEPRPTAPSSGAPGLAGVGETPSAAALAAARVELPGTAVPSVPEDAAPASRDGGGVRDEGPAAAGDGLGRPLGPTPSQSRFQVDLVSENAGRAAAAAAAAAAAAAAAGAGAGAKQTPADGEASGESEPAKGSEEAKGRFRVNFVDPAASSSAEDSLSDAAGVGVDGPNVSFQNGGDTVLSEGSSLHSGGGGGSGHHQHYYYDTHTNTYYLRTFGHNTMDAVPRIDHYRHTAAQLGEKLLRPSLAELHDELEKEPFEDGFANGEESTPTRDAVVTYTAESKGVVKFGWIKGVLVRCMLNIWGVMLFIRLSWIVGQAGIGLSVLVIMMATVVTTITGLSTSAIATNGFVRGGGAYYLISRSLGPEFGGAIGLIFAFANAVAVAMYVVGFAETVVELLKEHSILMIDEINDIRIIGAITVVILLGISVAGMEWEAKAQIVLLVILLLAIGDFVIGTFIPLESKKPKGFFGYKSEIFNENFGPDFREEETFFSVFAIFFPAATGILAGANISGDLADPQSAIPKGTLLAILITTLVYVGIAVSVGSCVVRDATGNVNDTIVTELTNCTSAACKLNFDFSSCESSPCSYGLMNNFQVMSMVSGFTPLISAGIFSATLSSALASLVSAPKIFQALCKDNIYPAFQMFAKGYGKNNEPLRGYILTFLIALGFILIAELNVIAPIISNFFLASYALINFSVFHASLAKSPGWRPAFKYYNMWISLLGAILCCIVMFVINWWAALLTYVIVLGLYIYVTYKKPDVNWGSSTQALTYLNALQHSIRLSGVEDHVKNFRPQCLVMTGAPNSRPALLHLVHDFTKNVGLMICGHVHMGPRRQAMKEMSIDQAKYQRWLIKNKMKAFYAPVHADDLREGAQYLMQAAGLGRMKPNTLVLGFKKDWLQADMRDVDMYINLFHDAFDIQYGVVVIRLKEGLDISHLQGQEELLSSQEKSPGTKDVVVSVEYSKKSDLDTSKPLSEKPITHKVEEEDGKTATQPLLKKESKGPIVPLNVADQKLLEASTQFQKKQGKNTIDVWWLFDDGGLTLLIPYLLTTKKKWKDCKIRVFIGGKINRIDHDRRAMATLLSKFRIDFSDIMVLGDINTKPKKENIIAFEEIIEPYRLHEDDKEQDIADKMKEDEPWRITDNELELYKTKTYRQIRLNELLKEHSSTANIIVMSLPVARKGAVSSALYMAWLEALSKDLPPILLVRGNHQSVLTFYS
Text: Cet effet a été étudié selon la méthodologie décrite par G. GARAY et coll. dans Naunyn-Schmidberg's Arch. Pharmakol. […] Pharm.

RAT = experiment: Diuretic activity in the rat (hourly urine volume, sodium and potassium assay); assay type: in vivo; details: for minimal effective dose: po, read-out: Dose minimale active; for Pouvoir diurétique en % / Rapport Na/K en %: PO, at the dose (minimal active dose)
Text: (§1) d'urine sont déterminés toutes les heures. Le dosage de sodium et du potassium est effectué par spectrophotométrie.

ECHANGEUR D'ANIONS = target: T2, ECHANGEUR D'ANIONS (Homo sapiens, UniProt P02730); experiment: Anion exchanger of human erythrocytes; assay type: cell-based, ERYTHROCYTES HUMAINS; details: for IC50: read-out: EFFET SUR L'ECHANGEUR D'ANIONS IC 50
T2 construct: systèmes de transport du sodium et du potassium des érythrocytes humains; endogenous in cells; host or cells: human erythrocytes
T2 sequence (P02730 1-911): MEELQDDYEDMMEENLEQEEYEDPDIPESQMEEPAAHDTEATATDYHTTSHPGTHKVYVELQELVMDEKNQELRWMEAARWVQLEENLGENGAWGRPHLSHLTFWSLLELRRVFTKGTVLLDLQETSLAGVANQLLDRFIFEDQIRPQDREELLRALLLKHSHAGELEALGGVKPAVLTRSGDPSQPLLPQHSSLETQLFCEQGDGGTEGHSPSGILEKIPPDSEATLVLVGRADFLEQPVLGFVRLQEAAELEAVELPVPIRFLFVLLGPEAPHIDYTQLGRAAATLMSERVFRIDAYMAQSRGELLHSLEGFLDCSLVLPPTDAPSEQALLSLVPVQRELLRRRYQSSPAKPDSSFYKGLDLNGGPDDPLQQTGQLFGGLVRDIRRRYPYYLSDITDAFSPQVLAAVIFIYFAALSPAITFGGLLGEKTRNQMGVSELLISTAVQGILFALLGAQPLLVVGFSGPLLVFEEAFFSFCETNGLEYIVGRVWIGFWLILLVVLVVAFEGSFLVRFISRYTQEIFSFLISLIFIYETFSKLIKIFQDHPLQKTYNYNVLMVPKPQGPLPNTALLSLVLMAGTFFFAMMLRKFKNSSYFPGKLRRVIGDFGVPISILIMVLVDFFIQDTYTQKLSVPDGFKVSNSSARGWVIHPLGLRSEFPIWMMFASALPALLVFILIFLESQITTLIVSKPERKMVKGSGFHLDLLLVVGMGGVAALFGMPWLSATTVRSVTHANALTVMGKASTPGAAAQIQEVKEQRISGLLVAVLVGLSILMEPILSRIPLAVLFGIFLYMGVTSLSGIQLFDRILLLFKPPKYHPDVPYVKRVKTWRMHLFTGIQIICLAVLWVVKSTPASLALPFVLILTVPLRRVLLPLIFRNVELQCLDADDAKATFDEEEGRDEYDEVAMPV
Text: Cet effet a été étudié selon la méthodologie décrite par G. GARAY et coll. dans Naunyn-Schmidberg's Arch. Pharmakol. 334 (1986) 202-209 et dans Bioch. Pharm. 33 (1984) 2013-2020.

SOURIS = experiment: Diuretic activity in the mouse (hourly urine volume, sodium and potassium assay); assay type: in vivo; details: for minimal effective dose: Mus musculus, po, read-out: Dose minimale active; for Pouvoir diurétique en % / Rapport Na/K en %: PO, at the dose (minimal active dose)
Text: as §1

[2] = in vitro, aggregating agent ADP, rat platelet-rich plasma, 37°, M not defined in the text, mM printed only in the TICLOPIDINE line, read-out: M à 50

IC50 [1, 2]: 0.75 mM
Compound: CC(C)(C)c1ccc(O)c(CCOc2ccc(F)cc2)c1 [Ex 52]

IC50 [1, 2]: 0.6 mM
Compound: O=C(Oc1ccccc1CCOc1ccc(F)cc1)c1cccnc1 [Ex 129]

IC50 [1, 2]: 1.6 mM
Compound: Oc1ccccc1CCOc1ccccc1 [Ex 12]

IC50 [1, 2]: 0.75 mM
Compound: Oc1ccc(OCCc2ccccc2O)cc1 [Ex 84]

IC50 [1, 2]: 0.7 mM
Compound: Oc1ccc(O)c(CCOc2ccc(F)cc2)c1 [Ex 102]

IC50 [1, 2]: 0.4 mM
Compound: Oc1cccc(CCOc2ccc(F)cc2)c1 [Ex 174]

IC50 (COTRANSPORT Na-K): > 600 µM | IC50 (ECHANGEUR D'ANIONS): 120 µM
Compound: COc1ccc(OC(C)=O)c(CCOc2ccc(F)cc2)c1 [ex 25]
minimal effective dose (RAT; R = RAT, diuretic activity): 12 mg/kg | minimal effective dose (SOURIS; S = SOURIS, diuretic activity): 25 mg/kg

IC50 [1, 2]: 0.55 mM
Compound: CC(C)c1ccc(O)c(CCOc2ccc(F)cc2)c1 [Ex 82]

IC50 (COTRANSPORT Na-K): 95 µM | IC50 (ECHANGEUR D'ANIONS): 200 µM
Compound: Oc1c(CCOc2ccc(F)cc2)ccc2ccccc12 [ex 46]
Pouvoir diurétique en % (RAT; R = RAT): R : Inactif S : Inactif | Rapport Na/K en % (RAT; R = RAT): R : Inactif S : Inactif | Pouvoir diurétique en % (SOURIS; S = SOURIS): R : Inactif S : Inactif | Rapport Na/K en % (SOURIS; S = SOURIS): R : Inactif S : Inactif

IC50 (COTRANSPORT Na-K): 70 µM | IC50 (ECHANGEUR D'ANIONS): 40 µM
Compound: COc1ccc(O)c(CCOc2ccc(Cl)cc2)c1 [ex 26]
minimal effective dose (RAT; R = RAT, diuretic activity): 50 mg/kg | minimal effective dose (SOURIS; S = SOURIS, diuretic activity): 100 mg/kg

Compound: NC(=O)c1ccc(O)c(CCOc2ccc(F)cc2)c1 [ex 163]
minimal effective dose (RAT; R = RAT, diuretic activity): 6 mg/kg | minimal effective dose (SOURIS; S = SOURIS, diuretic activity): 25 mg/kg

Compound: CC(=O)NCCCCCC(=O)Oc1ccccc1CCOc1ccc(F)cc1 [ex 139]
minimal effective dose (RAT; R = RAT, diuretic activity): 25 mg/kg | minimal effective dose (SOURIS; S = SOURIS, diuretic activity): 25 mg/kg

IC50 (COTRANSPORT Na-K): 95 µM | IC50 (ECHANGEUR D'ANIONS): 200 µM | IC50 [1, 2]: 0.3 mM
Compound: Oc1ccccc1CCOc1ccc2ccccc2c1 [ex 56]
Pouvoir diurétique en % (RAT; R = RAT): R : Inactif S : Inactif | Rapport Na/K en % (RAT; R = RAT): R : Inactif S : Inactif | Pouvoir diurétique en % (SOURIS; S = SOURIS): R : Inactif S : Inactif | Rapport Na/K en % (SOURIS; S = SOURIS): R : Inactif S : Inactif

Compound: O=P(O)(O)Oc1ccccc1CCOc1ccc(F)cc1 [ex 134]
EFFET SUR LE COTRANSPORT Na-K IC 50 (COTRANSPORT Na-K): Non actif | minimal effective dose (RAT; Rattus norvegicus): 6 mg/kg | EFFET SUR L'ECHANGEUR D'ANIONS IC 50 (ECHANGEUR D'ANIONS): Non actif | minimal effective dose (SOURIS): 25 mg/kg | IC50 ([1]; Rattus norvegicus, Platelet, read-out: M à 50): 1.3 mM | IC50 ([1]; Rattus norvegicus, Platelet, read-out: V à 50): 1.5 mM

IC50 [1, 2]: 1 mM
Compound: CC(=O)Oc1c(CCOc2ccc(F)cc2)cccc1C(C)C [Ex 81]
